According to US12351587B2, “Bicyclic compound as RIP-1 kinase inhibitor and application thereof” (MEDSHINE DISCOVERY INC., priority 2019, dated 2025):

How the values were obtained:
U937 cells = experiment: U937 cell activity assay: TNFα/QVD-OPh-induced programmed cell necrosis (necroptosis); assay type: cell-based, human; settings: Homo sapiens, U-937, 24 h, QVD-OPh 25 μM + TNF-α 100 ng/mL, CellTiter Glo
Experimental: 1.2 Instrument and Materials
Envision plate reader (Perkin Elmer, Cat #2104-0010)
1.3 Formulation of Reagents • (1) 1×DPSB: To 100 mL of 10×DPBS was added 900 mL of deionized water. • (2) 1640 complete medium: To 89 mL of RPMI-1640 medium were added 10 mL of FBS and 1 mL of penicillin/streptomycin 2. Assay Steps • 1. U937 cells were centrifuged, and then the medium was discarded. The cells were resuspended in 1640 complete medium and counted. The cell concentration was adjusted to 5×10^5 cells/mL for use, and the cells were arranged according to compounds to be assayed. • 2. To the prepared resuspension of U937 cells were added QVD-OPh at a final concentration of 25 μM and TNF-α at a final concentration of 100 ng/mL, and then the mixture was mixed gently. • 3. To a 384-well plate was added 30 μL/well of U937 cells containing 25 μM of QVD-OPh and TNF-α at a final concentration of 100 ng/mL, and blank control wells without QVD-OPh and TNF-α were set up. • 4. To the dosing group […] added 10 μL of the assay compound at 4 times the preset concentration, and to the blank control well was added DMSO at the corresponding concentration. • 5. The 384-well plate was placed in a 37° C. and 5% CO2 cell incubator for 24 hours. • 6. After 24 hours, the 384-well plate was taken out and equilibrated at room temperature for 20 minutes. • 7. 40 μL of CTG was added to each well, and then the plate was shaken on a shaker in the dark for 2 minutes. • 8. The plate was incubated at room temperature in the dark for 10 minutes, and then read using an Envision plate reader.

[1] = Pharmacokinetic parameters in dogs; assay type: in vivo; settings: beagle, plasma, dog
Experimental: Four healthy adult beagle dogs were selected and randomly divided into two groups. One group was given the assay compound by intravenous injection, and the other group was given the assay compound by gavage. Plasma samples were collected respectively from animals in the intravenous group and gavage group at 0.083, 0.25, 0.5, 1.0, 2.0, 4.0, 6.0, 8.0, 24 hours after administration. The blood concentration was determined by LC-MS/MS method. Relevant pharmacokinetic parameters were calculated by WinNonlin™ Version 6.3 (Pharsight. Mountain View, CA) pharmacokinetic software using non-compartmental model and linear logarithmic trapezoidal method. AUC0-last represents the area under the plasma concentration-time curve from zero time point to the last detectable concentration time point; Cmax represents the peak concentration; Tmax represents the time to reach the peak; T1/2 represents the half-life; CL represents the clearance rate; Vdss represents apparent volume of distribution; p.o. represents per os; i.v. represents intravenous injection; and F % represents oral bioavailability.

[2] = tested on: TNF-α/zVAD induced systemic inflammatory response syndrome (SIRS); experiment: Mouse model of TNF-α induced systemic inflammatory response syndrome (SIRS); assay type: in vivo; settings: 10 mpk by gavage
Experimental: Assay Example 4: In Vivo Efficacy Study in Mouse Model of Tumor Necrosis Factor (TNF-α) Induced Systemic Inflammatory Response Syndrome (SIRS)
Instruments and Materials • 1) Electronic balance: Brand Changzhou Tianzhiping Instrument Equipment Co., Ltd., Model JY20002 • 2) Anal thermometer. Brand PHYSITEMP, model BAT-12 Formulation of Reagents • 1) TNF-α: TNF-α was centrifuged quickly (10000 rmp, 30 s) before opening the lid. One bottle of TNF-α (1 mg) was dissolved in 1 mL of sterile water to prepare a mother liquor with a concentration of 1 mg/mL. The mother liquor was stored at 4° C. and cm be stored for one week, 1000 μL of the mother liquor was weighed and added to 5667 μL of sterile water, and then 333 mg of trehalose was added and dissolved to prepare a working solution. • 2) zVAD: […] of zVAD was weighed and added to 480 μL of DMSO, and the mixture was vortexed, sonicated, and heated at 37° C., and then 15.52 mL of physiological saline was added. A working solution with a concentration of 1.25 mu/mL was prepared. Assay Steps • 1) The mice were reared adaptively for 3 days, and then randomly grouped into cages, 5 mice in each cage. Ear tags were cut. • 2) Firstly, the mice were given the corresponding compound by gavage according to their body weight, and then injected intraperitoneally with zVAD at a dose of 250 μg per mouse. After the intraperitoneal injection of zVAD, the anal temperature was measured immediately (0 h), and the time was recorded. The time when mice were given zVAD was defined as the 0th hour (0 h). • 3) After 15 minutes, TNF-α was injected through the tail vein at a dose of 200 μL per mouse, and then the anal temperature was measured 15 minutes later (0.5 h). • 4) After 1 h, zVAD was injected intraperitoneally at a dose of 125 μg per mouse, and then the anal temperature was measured immediately (1 h). The anal temperature was measured again at 2 h, 3 h, and 4 h.

`CN1C(=S)[C@@H](NC(=O)c2ncn(Cc3ccccc3)n2)COc2cccnc21` [WX009] gave an IC50 (U937 cells) of 1.4 nM, an AUC(0-t) ([1]; 3 mg/kg, iv = 3 mpk) of 20.8 µM·h and a clearance ([1]; 3 mg/kg, iv = 3 mpk) of 6.2 mL/min/kg. For the same compound, the half-life ([1]; 3 mg/kg, iv = 3 mpk) was 5.5 h, the Vd ([1]; 3 mg/kg, iv = 3 mpk, read-out: Vdss) was 2.4 L/kg and the AUC(0-t) ([1]; 10 mg/kg, po = 10 mpk) was 23.6 µM·h. For the same compound, the Cmax ([1]; 10 mg/kg, po = 10 mpk) was 284 nM, the Tmax ([1]; 10 mg/kg, po = 10 mpk) was 2 h and the bioavailability ([1]; po = 10 mpk vs iv = 3 mpk) was 34.2%. For the same compound, the “4-hour survival rate of animals” value [2] was 100%, the “Decrease in mouse body temperature” value ([2]; 1 hour) was 0.94 °C and the “Decrease in mouse body temperature” value ([2]; 2 hours) was 1.2 °C. The “Decrease in mouse body temperature” value ([2]; 3 hours) was 1.42 °C and the “Decrease in mouse body temperature” value ([2]; 4 hours) was 1.52 °C.
